Assay results: PMC11684006, “A Putative Frizzled 7-Targeting Compound Acts as a Firefly Luciferase Inhibitor” (Journal of Medicinal Chemistry, 2024)

Target: T1, Firefly luciferase (Fluc) (Photinus pyralis, UniProt P08659)
T1 construct: Fluc amplified from the Super8X TOPFlash reporter plasmid, constitutively expressed under a CMV promoter
Assay: Fluc bioluminescence in lysates of compound-treated ΔFZD1–[…] HEK293T cells expressing CMV-driven Fluc (counter assay); Rluc and Nluc unaffected
Type: cell-based

T1 sequence (P08659 whole entry): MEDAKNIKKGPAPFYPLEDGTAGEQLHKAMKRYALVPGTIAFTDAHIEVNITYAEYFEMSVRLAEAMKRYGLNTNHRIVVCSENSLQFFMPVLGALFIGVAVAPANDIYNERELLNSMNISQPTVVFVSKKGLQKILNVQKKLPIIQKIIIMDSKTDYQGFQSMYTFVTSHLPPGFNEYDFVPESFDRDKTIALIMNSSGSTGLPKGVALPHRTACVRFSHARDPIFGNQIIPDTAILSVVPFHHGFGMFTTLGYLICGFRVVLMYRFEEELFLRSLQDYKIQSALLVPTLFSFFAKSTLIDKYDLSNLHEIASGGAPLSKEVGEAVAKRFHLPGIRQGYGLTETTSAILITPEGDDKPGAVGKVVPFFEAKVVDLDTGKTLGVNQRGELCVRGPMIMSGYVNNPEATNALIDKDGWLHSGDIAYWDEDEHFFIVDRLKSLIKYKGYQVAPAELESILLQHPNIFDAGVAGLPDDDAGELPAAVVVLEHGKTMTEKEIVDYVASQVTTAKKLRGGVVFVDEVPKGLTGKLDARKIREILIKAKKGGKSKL

IC50: 0.025 µM
Structure (SMILES): Cc1ccc(C(=O)Nc2ccc(SCC(=O)Nc3nc(-c4ccccc4)cs3)cc2)c(C)c1 [compound 3, 2,4-Dimethyl-N-(4-((2-oxo-2-((4-phenylthiazol-2-yl)amino)ethyl)thio)phenyl)benzamide]
